How the values were obtained:
IGF-1R = IGF-1R (Homo sapiens, UniProt P08069); assay: IGF-1R phosphorylation/autophosphorylation in intact FM55 melanoma cells (immunoprecipitation, Western blotting, OD); format: cell-based; set-up: The cells were then isolated and subjected to immuno-precipitation of the IGF-1R; endogenous in cells; host or cells: FM55 melanoma cells; details: for Level of IGF-1R phosphorylation in intact cells: OD, control cells = 100%
Protocol: The isolated cells were lyzed in 10 ml ice-cold PBSTDS containing protease inhibitors (Carlberg, M., et al., J Biol Chem 271:17453-17462, 1996). 50 μl protein A or G agarose was added in 1 ml sample and incubated for 15 min at 4° C. on an orbital shaker. After centrifugation for 10 min at 10,000 r/min at 4° C. the supernatant was saved. The protein content was determined by a dye-binding assay with a reagent purchased from Bio-Rad. Bovine serum albumin was used as a standard. 15 μl Protein G Plus agarose and 5 μl anti-IGF-1R were added. After a 3 h incubation at 4° C. on an orbital shaker the precipitate was collected by pulse centrifugation in a micro centrifuge at 14,000×g for 10 s. The supernatant was discarded and the pellet was washed 3 times with PBSTDS.
Protein samples were solved in a 2×-sample buffer containing Laemmli buffer and 0.5% […] and boiled for 5 min at 96° C. Samples were separated by SDS-PAGE with a 4% stacking gel and 7.5% separation gel. Molecular weight markers (Bio Rad, Sweden) were run simultaneously in all experiments.
Following SDS-PAGE the proteins were transferred overnight to nitro-cellulose membranes (Hybond, Amersham, UK) and then blocked for 1 h at room temperature in a solution of 4% skimmed milk powder and 0.02% Tween 20 in PBS, pH 7.5. Incubations with the primary antibodies were performed for 1 h at room temperature, followed by 3 washes with PBS with Tween and incubation with the second antibody for 1 h room temperature. After another 3 washes the membranes were incubated with Streptavidin-labelled horseradish peroxidase for 30 min and then detected using Amersham ECL system (Amersham, UK) The films were scanned by Fluor-S (BioRad).
Melanoma cells (line FM55) were seeded in 6-cm dishes, at a concentration of 10,000 cells/cm^2 in Minimal Essential Medium supplemented with 10% fetal calf serum (FCS). […] Treatment with 0 μM represents untreated controls. The cells were then isolated and subjected to immuno-precipitation of the IGF-1R. The immunoprecipitates, containing purified IGF-1R, were fractionated by gel electrophoresis. Phosphorylation of IGF-1R was detected by an anti-phosphotyrosine antibody using Western blotting. The obtained signals represent phosphorylated IGF-1R and the intensity of signals represents amounts of phosphorylated IGF-1R. Details of the methods used are described above. The intensities are quantified by a scanner, which measures the optical density (OD) of the signals. For the control cells the OD is set at 100%. The blank (OD 0%) represents the background. The results given in Table 1 below are mean values of 3 experiments.
FM 55 melanoma cells were cultured in the same way as described in Experiment 1. When reaching a density of 65,000 cells/cm^2 in the dishes, they were treated for 1 h with 0.05 μM podophyllotoxin, deoxypodophyllotoxin, acetylpodophyllotoxin, epipodophyllotoxin, 4′-demethyl-podophyllotoxin and podophyllotoxone. The cells were then harvested for assay and quantification of IGF-1R autophosphorylation as described above. The values shown in Table 2 represent means of 3 experiments.

SK-MEL-28 melanoma cells = assay: Cell viability (XTT), SK-MEL-28; format: cell-based, human; details: Homo sapiens, 48 h
Protocol: (§1) Cell proliferation kit II (Roche Inc.) is based on calorimetric change of the yellow tetrazolium salt XTT in orange formazan dye by the respiratory chain of viable cells (Roehm, N W, et al., J Immunol Methods 142:257-265, 1991). Cells seeded at a concentration of 5000/well in 100 μl medium in a 96-well plate were treated with different drugs in the given concentration. After 24 or 48 h the cells were incubated, according to the manufacturer's protocol, with XTT labelling mixture. After 4 h the formazan dye is quantified using a scanning multiwell spectrophotometer with a 495-nm filter. The absorbance is directly correlated with number of viable cells. The standard absorbance curve was drawn by means of untreated cells seeded at a concentration of from 1000 to 10 000 cells/well with an increasing rate of 1000 cells/well. All standards and experiments were performed in triplicates.
5 different types of cell lines were seeded in 96-well plates (medium volume in a well was 100 μl), at a concentration of 10,000 cells/cm^2 in Minimal Essential Medium supplemented with fetal calf serum. When the cells had reached a concentration of 65,000 cells/cm^2, they were treated with different doses of podophyllotoxin and deoxypodophyllotoxin for 48 h. Cell viability was then assayed (see above). […]

malignant cells = assay: Cell death in malignant cells; format: cell-based
[1] = test system: cells devoid of insulin-like growth factor-1 receptors; assay: Cell death in cells devoid of IGF-1R; format: cell-based
[2] = test system: receptor of platelet-derived growth factor; assay: Tyrosine phosphorylation of platelet-derived growth factor receptor; format: cell-based
[3] = test system: HL60/Nov acute myeloid leukemia cells (cytostatic-resistant); assay: Viability of leukemia cells, HL60/Nov; format: cell-based, human; details: Homo sapiens, HL-60, 72 h, read-out: IC50 for viability of leukemia cell lines
Protocol: The human chronic myeloid leukemia K562/S and K562/Vcr30 lines and the acute myeloid leukemia cell lines HL60/0 and HL60/Nov were obtained from ATCC. The K562/S and HL60/0 are wild type (non-resistant) cells, whereas K562/Vcr30 and HL60/Nov are cytostatic-resistant sublines. All leukemia cell lines were cultured in RPMI 1640 medium supplemented with 10% fetal bovine serum and with 2 mM glutamine, 1% benzyl-penicillin and streptomycin. The cells were grown in tissue culture flasks maintained at 95% air/5% CO2 atmosphere at 37° C. in a humidified incubator. For the experiments 25,000 cells were cultured in 60-mm plastic dishes or 96-well plastic plates. The experiments on leukemia cells were performed in collaboration with Associate professor Sigurd Vitols, Department of Pharmacology, Karolinska Hospital (Stockholm, Sweden).
as §1
The leukemia cell lines K562/S, K562/Vcr 30, HL60/0 and HL60/Nov were proven to express the IGF-1R. This was assayed by Western blotting analysis, as described in Methods and Experiment 1 and 2. The 4 leukemia cell lines were seeded in 96-well plates (medium volume in a well was 100 μl), in RPMI40 medium supplemented with fetal calf serum. After 24 h podophyllotoxin, deoxypodophyllotoxin and other derivatives were added at different concentrations for 72 h. Cell viability was then assayed (see above). IC50 values for each inhibitor and cell lines are shown below (Table 5). The results are based on 3 different experiments.

[4] = biological target: insulin receptor tyrosine kinase (Homo sapiens, UniProt P06213); assay: Interference with insulin receptor tyrosine kinase; format: cell-based
Chain of insulin receptor tyrosine kinase (P06213 28-1382): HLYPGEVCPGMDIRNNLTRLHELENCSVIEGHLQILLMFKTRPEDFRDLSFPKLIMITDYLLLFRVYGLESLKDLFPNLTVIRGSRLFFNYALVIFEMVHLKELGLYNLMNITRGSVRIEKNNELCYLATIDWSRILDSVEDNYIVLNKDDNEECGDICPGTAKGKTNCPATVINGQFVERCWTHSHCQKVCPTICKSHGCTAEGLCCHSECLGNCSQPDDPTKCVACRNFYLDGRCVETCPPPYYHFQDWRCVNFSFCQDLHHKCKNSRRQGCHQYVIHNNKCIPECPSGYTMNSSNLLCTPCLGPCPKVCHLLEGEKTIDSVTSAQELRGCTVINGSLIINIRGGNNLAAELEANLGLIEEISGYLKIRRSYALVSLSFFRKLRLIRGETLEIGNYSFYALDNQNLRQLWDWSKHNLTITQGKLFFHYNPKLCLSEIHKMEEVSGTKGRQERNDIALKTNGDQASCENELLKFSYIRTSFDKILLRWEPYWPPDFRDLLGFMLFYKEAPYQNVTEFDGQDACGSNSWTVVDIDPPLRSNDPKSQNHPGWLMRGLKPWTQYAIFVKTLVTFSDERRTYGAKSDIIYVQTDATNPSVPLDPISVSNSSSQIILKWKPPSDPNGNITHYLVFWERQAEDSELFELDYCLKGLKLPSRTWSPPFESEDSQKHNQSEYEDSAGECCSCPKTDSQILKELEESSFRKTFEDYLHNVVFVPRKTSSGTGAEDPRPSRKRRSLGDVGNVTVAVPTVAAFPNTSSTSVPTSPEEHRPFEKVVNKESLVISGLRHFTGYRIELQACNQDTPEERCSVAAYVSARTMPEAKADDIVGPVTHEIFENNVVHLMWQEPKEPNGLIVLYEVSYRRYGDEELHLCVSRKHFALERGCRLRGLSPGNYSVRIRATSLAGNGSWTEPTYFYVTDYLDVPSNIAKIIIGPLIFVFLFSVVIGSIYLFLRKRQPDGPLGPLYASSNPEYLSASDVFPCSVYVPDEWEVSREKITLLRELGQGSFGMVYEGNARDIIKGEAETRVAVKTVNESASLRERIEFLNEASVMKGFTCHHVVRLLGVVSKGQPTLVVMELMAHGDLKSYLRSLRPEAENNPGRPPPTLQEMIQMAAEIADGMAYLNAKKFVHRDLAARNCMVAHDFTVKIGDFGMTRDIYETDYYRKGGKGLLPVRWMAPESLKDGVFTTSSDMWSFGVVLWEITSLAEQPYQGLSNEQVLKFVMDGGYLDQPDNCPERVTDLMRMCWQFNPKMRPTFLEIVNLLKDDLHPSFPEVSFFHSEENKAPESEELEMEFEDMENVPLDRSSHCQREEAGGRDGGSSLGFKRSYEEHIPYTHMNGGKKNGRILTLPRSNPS

Chain of IGF-1R (P08069 31-1367): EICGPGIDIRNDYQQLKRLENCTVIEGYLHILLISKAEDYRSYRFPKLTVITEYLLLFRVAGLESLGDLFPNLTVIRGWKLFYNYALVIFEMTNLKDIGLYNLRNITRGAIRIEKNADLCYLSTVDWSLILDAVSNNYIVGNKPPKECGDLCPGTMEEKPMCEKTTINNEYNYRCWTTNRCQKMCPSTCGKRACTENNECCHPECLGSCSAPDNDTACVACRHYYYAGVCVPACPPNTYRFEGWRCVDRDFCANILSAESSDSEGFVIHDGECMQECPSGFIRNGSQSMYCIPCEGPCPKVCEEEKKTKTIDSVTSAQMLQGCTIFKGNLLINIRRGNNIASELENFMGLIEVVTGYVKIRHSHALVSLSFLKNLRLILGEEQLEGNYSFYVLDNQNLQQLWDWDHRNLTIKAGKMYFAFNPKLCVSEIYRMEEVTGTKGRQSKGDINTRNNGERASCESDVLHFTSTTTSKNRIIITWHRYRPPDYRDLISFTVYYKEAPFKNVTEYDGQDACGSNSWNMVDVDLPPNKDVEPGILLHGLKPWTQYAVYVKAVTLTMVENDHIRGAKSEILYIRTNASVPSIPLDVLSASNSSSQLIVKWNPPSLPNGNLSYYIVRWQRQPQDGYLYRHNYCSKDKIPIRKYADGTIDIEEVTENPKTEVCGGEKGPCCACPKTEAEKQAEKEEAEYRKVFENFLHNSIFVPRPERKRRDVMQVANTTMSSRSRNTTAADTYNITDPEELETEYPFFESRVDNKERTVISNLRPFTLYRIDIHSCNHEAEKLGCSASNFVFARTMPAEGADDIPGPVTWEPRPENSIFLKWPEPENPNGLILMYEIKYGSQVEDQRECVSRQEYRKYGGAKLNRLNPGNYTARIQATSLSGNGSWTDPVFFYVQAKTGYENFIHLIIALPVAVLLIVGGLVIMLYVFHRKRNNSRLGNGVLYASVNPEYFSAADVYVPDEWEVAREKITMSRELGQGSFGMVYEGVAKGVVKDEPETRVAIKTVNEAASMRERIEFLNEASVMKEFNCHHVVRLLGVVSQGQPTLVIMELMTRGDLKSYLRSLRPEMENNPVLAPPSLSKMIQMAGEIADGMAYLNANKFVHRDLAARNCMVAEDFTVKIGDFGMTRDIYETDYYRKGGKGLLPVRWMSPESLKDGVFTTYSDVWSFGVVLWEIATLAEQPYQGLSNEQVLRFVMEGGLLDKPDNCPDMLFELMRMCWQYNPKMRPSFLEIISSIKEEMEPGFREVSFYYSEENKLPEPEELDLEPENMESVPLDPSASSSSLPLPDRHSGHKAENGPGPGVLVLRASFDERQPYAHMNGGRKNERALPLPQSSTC

Q: Which results are given for `COc1cc([C@@H]2c3cc4c(cc3[C@H](O)[C@H]3COC(=O)[C@H]23)OCO4)cc(OC)c1OC` [Podophyllotoxin, podophyllotoxin]?
A: inhibition of IGF-1R phosphorylation (in words) (IGF-1R; FM55 cells, 0.05 μM, 1 h): potent inhibitors; Inhibitory effect on IGF-1R autophosphorylation in intact cells in relation to podophyllotoxin, Relative potency (IGF-1R; FM55 cells, 0.05 μM, 1 h, podophyllotoxin = 1, mean of 3): 1; Level of IGF-1R phosphorylation in intact cells (IGF-1R; FM55 cells, 1 μM, 1 h, mean of 3): 8%; Level of IGF-1R phosphorylation in intact cells (IGF-1R; FM55 cells, 15 μM, 1 h, mean of 3): 4%; Level of IGF-1R phosphorylation in intact cells (IGF-1R; FM55 cells, 60 μM, 1 h, mean of 3): 2%; effect on IGF-1R phosphorylation (in words) (IGF-1R; FM55 cells, 1, 15, 60 μM, genistein statement at 60 μM): almost completely blocks; concentration sufficient to inactivate the IGF-1R, fold lower than for the anti-microtubule effect (IGF-1R; compared to anti-microtubule effect): 100 fold; IC50 (SK-MEL-28 melanoma cells): 50 nM; cell death in malignant cells (in words) (malignant cells): extensive cell death; response of cells devoid of IGF-1R (in words) [1]: resistant; interference with tyrosine phosphorylation of the receptor of platelet-derived growth factor [2]: Neither do they interfere; IC50 [3]: 2 nM; interference with the insulin receptor tyrosine kinase [4]: do not interfere

From patent US7709526B2, “Use of cyclolignans and new cyclolignans” (Biovitrum AB, priority 2001, dated 2010)
